In the supplement of paper PMC11061612:

Columns and labels:
Assay in all cases: combination Emax (second highest fraction inhibited in the dose matrix, 72 h); higher = more inhibition; extreme values may be limits of the assay
[1] = system: ALL-PO (B-Lymphoblastic Leukemia)
In short: (§1)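 Bliss excess equals the observed combination effect minus the expected value EA + EB − EA·EB, where EA and EB are the effects of each agent alone. Combination Emax is the second-highest inhibition within the matrix. Inhibition was scaled from CellTiter-Glo 2.0 luminescence, with 0 set by vehicle wells and 1 by blank wells, after 72 hours of two-drug dosing of cells plated in 1536-well plates.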

[2] = system: BFTC-909 (Kidney Carcinoma)
In short: as §1

[3] = system: BPH-1 (Non-Cancerous)
In short: as §1

[4] = system: CAL-72 (Osteosarcoma)
In short: as §1

[5] = system: ESS-1 (Other Solid Carcinomas)
In short: as §1

[6] = system: EW-11 (Ewing's Sarcoma)
In short: as §1

[7] = system: FTC-133 (Thyroid Gland Carcinoma)
In short: as §1

[8] = system: HH (T-Cell Non-Hodgkin's Lymphoma)
In short: as §1

[9] = system: HeLa (Cervical Carcinoma)
In short: as §1

[10] = system: HuCCT1 (Biliary Tract Carcinoma)
In short: as §1

[11] = system: L-428 (Hodgkin's Lymphoma)
In short: as §1

[12] = system: LNZTA3WT4 (Low Grade Glioma)
In short: as §1

[13] = system: LOXIMVI (Melanoma)
In short: as §1

[14] = system: LS-123 (Colorectal Carcinoma)
In short: as §1

[15] = system: NUGC-4 (Gastric Carcinoma)
In short: as §1

[16] = system: OE21 (Esophageal Squamous Cell Carcinoma)
In short: as §1

[17] = system: SNU-449 (Hepatocellular Carcinoma)
In short: as §1

[18] = system: SW1573 (Lung Adenocarcinoma)
In short: as §1

[19] = system: TGBC1TKB (Biliary Tract Carcinoma)
In short: as §1

[20] = system: WSU-NHL (B-Cell Non-Hodgkin's Lymphoma)
In short: as §1

Row | Compound | combination Emax [1] | combination Emax [2] | combination Emax [3] | combination Emax [4] | combination Emax [5] | combination Emax [6] | combination Emax [7] | combination Emax [8] | combination Emax [9] | combination Emax [10] | combination Emax [11] | combination Emax [12] | combination Emax [13] | combination Emax [14] | combination Emax [15] | combination Emax [16] | combination Emax [17] | combination Emax [18] | combination Emax [19] | combination Emax [20]
1 | CCN(CCO)CCCOc1ccc2c(Nc3cc(CC(=O)Nc4cccc(F)c4)[nH]n3)ncnc2c1 [AZD2811] + C[C@@H]1COCCN1C2=NC(=NC(=C2)C3(CC3)[S@](=N)(=O)C)C4=C5C=CNC5=NC=C4 [AZD6738] (first compound max 1 µM, 7x7, partner max 10 µM) | 0.979 | 0.777 | 0.4 | 0.843 | 0.97 | 0.686 | 0.688 | 0.179 | 0.567 | 0.773 | 0.78 | 0.754 | 0.746 | 0.632 | 0.547 | 0.666 | 0.176 | 0.266 | 0.383 | 0.967
2 | COc1nnc2ccc(N3CCC(c4ccc(OCCN5CCN(C)C(=O)[C@H]5C)cc4)CC3)nn12 [AZD5153] + Cn1cnc2c(F)c(Nc3ccc(Br)cc3Cl)c(C(=O)NOCCO)cc21 [Selumetinib] (first compound max 1 µM, 7x7, partner max 10 µM) | 0.88 | 0.488 | 0.87 | 0.389 | 0.585 | 0.424 | 0.592 | 0.42 | 0.411 | 0.826 | 0.784 | 0.383 | 0.877 | 0.794 | 0.831 | 0.861 | 0.243 | 0.577 | 0.37 | 0.954
3 | COc1nnc2ccc(N3CCC(c4ccc(OCCN5CCN(C)C(=O)[C@H]5C)cc4)CC3)nn12 [AZD5153] + C[C@@H]1COCCN1C2=NC(=NC(=C2)C3(CC3)[S@](=N)(=O)C)C4=C5C=CNC5=NC=C4 [AZD6738] (first compound max 1 µM, 7x7, partner max 10 µM) | 0.987 | 0.876 | 0.831 | 0.784 | 0.949 | 0.692 | 0.782 | 0.491 | 0.589 | 0.666 | 0.929 | 0.809 | 0.97 | 0.59 | 0.652 | 0.858 | 0.166 | 0.557 | 0.508 | 0.99
4 | COc1cccc(OCCCN)c1-c1cc(Nc2cnc(C#N)cn2)n[nH]1 [Prexasertib] + C=CCn1c(=O)c2cnc(Nc3ccc(N4CCN(C)CC4)cc3)nc2n1-c1cccc(C(C)(C)O)n1 [AZD1775] (first compound max 1 µM, partner max 1 µM) | 0.989 | 0.977 | 0.809 | 0.891 | 1 | 0.683 | 0.858 | 0.742 | 0.91 | 0.827 | 0.955 | 0.91 | 0.859 | 0.828 | 0.555 | 0.733 | 0.439 | 0.582 | 0.446 | 1
5 | CCN(CCO)CCCOc1ccc2c(Nc3cc(CC(=O)Nc4cccc(F)c4)[nH]n3)ncnc2c1 [AZD2811] + C=CCn1c(=O)c2cnc(Nc3ccc(N4CCN(C)CC4)cc3)nc2n1-c1cccc(C(C)(C)O)n1 [AZD1775] (first compound max 1 µM, partner max 1 µM) | 0.981 | 0.683 | 0.679 | 0.728 | 1 | 0.469 | 0.685 | 0.293 | 0.449 | 0.739 | 0.824 | 0.792 | 0.959 | 0.68 | 0.227 | 0.468 | 0.249 | 0.283 | 0.234 | 1
6 | Cn1cnc2c(F)c(Nc3ccc(Br)cc3Cl)c(C(=O)NOCCO)cc21 [Selumetinib] + C=CCn1c(=O)c2cnc(Nc3ccc(N4CCN(C)CC4)cc3)nc2n1-c1cccc(C(C)(C)O)n1 [AZD1775] (first compound max 10 µM, partner max 1 µM) | 0.978 | 0.646 | 0.535 | 0.519 | 0.936 | 0.42 | 0.778 | 0.0977 | 0.437 | 0.793 | 0.808 | 0.57 | 0.854 | 0.542 | 0.526 | 0.683 | 0.129 | 0.361 | 0.233 | 0.854
7 | CC1(C)CCC(CN2CCN(c3ccc(C(=O)NS(=O)(=O)c4ccc(NCC5CCOCC5)c([N+](=O)[O-])c4)c(Oc4cnc5[nH]ccc5c4)c3)CC2)=C(c2ccc(Cl)cc2)C1 [Venetoclax] + Cn1cnc2c(F)c(Nc3ccc(Br)cc3Cl)c(C(=O)NOCCO)cc21 [Selumetinib] (first compound max 1 µM, 7x7, partner max 3 µM) | 0.538 | 0.23 | 0.572 | 0.403 | 0.864 | 0.451 | 0.133 | 0.132 | 0.103 | 0.38 | 0.137 | 0.308 | 0.571 | 0.374 | 0.499 | 0.337 | 0.109 | 0.0752 | 0.167 | 0.745
8 | CC1(C)CCC(CN2CCN(c3ccc(C(=O)NS(=O)(=O)c4ccc(NCC5CCOCC5)c([N+](=O)[O-])c4)c(Oc4cnc5[nH]ccc5c4)c3)CC2)=C(c2ccc(Cl)cc2)C1 [Venetoclax] + C=CCn1c(=O)c2cnc(Nc3ccc(N4CCN(C)CC4)cc3)nc2n1-c1cccc(C(C)(C)O)n1 [AZD1775] (first compound max 1 µM, partner max 1 µM) | 1 | 0.667 | 0.377 | 0.924 | 1 | 0.715 | 0.86 | 0.766 | 0.573 | 0.69 | 0.851 | 0.917 | 0.622 | 0.633 | 0.312 | 0.636 | 0.239 | 0.407 | 0.35 | 0.985
9 | CC1(C)CCC(CN2CCN(c3ccc(C(=O)NS(=O)(=O)c4ccc(NCC5CCOCC5)c([N+](=O)[O-])c4)c(Oc4cnc5[nH]ccc5c4)c3)CC2)=C(c2ccc(Cl)cc2)C1 [Venetoclax] + C[C@@H](Nc1cc(F)cc(F)c1)c1cc(C(=O)N(C)C)cc2c(=O)cc(N3CCOCC3)oc12 [AZD8186] (first compound max 1 µM, 7x7, partner max 3 µM) | 0.703 | 0.203 | 0.31 | 0.406 | 0.814 | 0.699 | 0.182 | 0.434 | 0.124 | 0.185 | 0.196 | 0.185 | 0.129 | 0.256 | 0.287 | 0.109 | 0.172 | 0.136 | 0.526 | 1
10 | COc1nnc2ccc(N3CCC(c4ccc(OCCN5CCN(C)C(=O)[C@H]5C)cc4)CC3)nn12 [AZD5153] + C=CCn1c(=O)c2cnc(Nc3ccc(N4CCN(C)CC4)cc3)nc2n1-c1cccc(C(C)(C)O)n1 [AZD1775] (first compound max 1 µM, partner max 1 µM) | 0.995 | 0.702 | 0.88 | 0.647 | 0.898 | 0.572 | 0.837 | 0.47 | 0.54 | 0.767 | 0.918 | 0.643 | 0.892 | 0.546 | 0.641 | 0.742 | 0.249 | 0.544 | 0.296 | 0.952
11 | NC1(C(=O)N[C@@H](CCO)c2ccc(Cl)cc2)CCN(c2ncnc3[nH]ccc23)CC1 [Capivasertib] + CC(C)n1c(=O)n(C)c2cnc3cc(F)c(-c4ccc(OCCCN5CCCCC5)nc4)cc3c21 [AZD1390] (first compound max 10 µM, 7x7, partner max 0.3 µM) | 0.521 | 0.622 | 0.459 | 0.265 | 0.46 | 0.511 | 0.582 | 0.256 | 0.199 | 0.24 | 0.162 | 0.372 | 0.401 | 0.325 | 0.145 | 0.621 | 0.174 | 0.235 | 0.358 | 0.882
12 | NC1(C(=O)N[C@@H](CCO)c2ccc(Cl)cc2)CCN(c2ncnc3[nH]ccc23)CC1 [Capivasertib] + Cn1cnc2c(F)c(Nc3ccc(Br)cc3Cl)c(C(=O)NOCCO)cc21 [Selumetinib] (first compound max 10 µM, 7x7, partner max 10 µM) | 0.726 | 0.734 | 0.716 | 0.305 | 0.526 | 0.453 | 0.608 | 0.246 | 0.253 | 0.717 | 0.126 | 0.445 | 0.782 | 0.555 | 0.329 | 0.924 | 0.205 | 0.362 | 0.475 | 0.92
13 | COc1nnc2ccc(N3CCC(c4ccc(OCCN5CCN(C)C(=O)[C@H]5C)cc4)CC3)nn12 [AZD5153] + CCN(CCO)CCCOc1ccc2c(Nc3cc(CC(=O)Nc4cccc(F)c4)[nH]n3)ncnc2c1 [AZD2811] (first compound max 1 µM, 7x7, partner max 1 µM) | 1 | 0.535 | 0.844 | 0.503 | 0.809 | 0.452 | 0.678 | 0.485 | 0.433 | 0.498 | 0.845 | 0.457 | 0.861 | 0.44 | 0.557 | 0.693 | 0.298 | 0.504 | 0.307 | 0.934
